Laboratory results: US11564913B2, “Compositions and methods for treating cancer” (Children's Hospital Medical Center, priority 2019, dated 2023)
pIC50: −log10 of the molar value.

Legend:
[1] = Peripheral blood counts (Hemavet) after 12 doses in xenograft mice; type: in vivo; settings: end of four-week treatment (12 doses)
Procedure: Peripheral blood collected after 12 doses of IODVA1 in tumor-bearing breast cancer xenograft animals were analyzed for blood counts with a Hemavet. No statistically significant changes in blood counts were detected between vehicle control and IODVA1 treated animals (N=4, mean, SEM).
At the end of the four-week treatment when mice were euthanized, peripheral blood was collected via cardiac puncture to check the effect of IODVA1 on white and red blood cells of treated mice for any sign of toxicity.
For xenograft studies, 1×10^6 MDA-MB-231 cells were suspended in PBS and injected into each inguinal mammary fat pad of nulliparous, 10-week old female athymic nude mice. Tumors were measured weekly with digital calipers and volume was calculated as [(π/6))×L×W^2] (Euhus et al., 1986; Tomayko and Reynolds, 1989). Treatment began eight weeks post-injection, when tumors reached 200 mm^3. Mice received intraperitoneal injections of 250 uL of diluent (5% DMSO in PBS) or […] of compound IODVA1 three times weekly for 4 weeks, for an average drug dose of 3.5 mg/kg. At necropsy, the mice were weighed and the tumors were excised, measured, weighed, fixed in 4% paraformaldehyde, and embedded in paraffin. Peripheral blood was collected by cardiac puncture and analyzed with a Hemavet (Drew Scientific, Miami Lakes, Fla., USA) for complete blood counts. […]

[2] = system: active Rac (Rac-GTP) in p190-BCR-ABL Ba/F3 cells; assay: Active GTPase pull-down (GST-PAK-GBD); type: cell-based, murine
Procedure: (§1) FIG. 13: IODVA1 decreases Rac activation and signaling. (A) Ba/F3 cells expressing p190-BCR-ABL1 were treated with IODVA1 (3 μM) as indicated and levels of active Rac (Rac-GTP) were assessed by pull-down using GST-PAK-GBD, followed by immunoblotting (upper panel) and densitometric quantification (lower panel). (B) Flow-cytometry analysis of pJNK, pS6, p4EBP, pPAK1, and pAKT of Ba/F3 cells expressing Mieg3 empty vector (light and dark blue) or p190-BCR-ABL1 (light and dark salmon) and treated with vehicle control or IODVA1 (3 μM) for 30 min. (C) Representative histogram data of the cell cycle analysis of Ba/F3 cells expressing p190-BCR-ABL and treated with vehicle control or IODVA1 (1, 3, and 10 μM) for 20 h. (D) Quantification of the average number of colonies of bone marrow wild-type (black) and Rac1^Δ/Δ+Rac2^−/− (red) p190-BCR-ABL1 leukemic cells treated with vehicle control or IODVA1 (IO1, 1 μM). ns—not significant, * p<0.05, ** p<0.01, *** p<0.001. (E) As in FIG. 13A, but cells were incubated for a fixed amount of time (1 h) at the indicated IODVA1 concentrations. (F) Ba/F3 cells expressing p190-BCR-ABL1 were treated with IODVA1 (3 μM) and lysed at the indicated times. Cell lysates were separated on SDS-PAGE and immunoblotted for pPAK(T423), pBAD(S136), and BAD. (G) Ba/F3 cells expressing p190-BCR-ABL1 were treated with IODVA1 (3 μM) and levels of active Cdc42 (Cdc42-GTP) and Rho (Rho-GTP) were assessed by pull-down at the indicated times using GST-PAK-GBD and GST-Rhotekin respectively, followed by immunoblotting (left panel) and densitometric quantification (right panel). (H) Morphology of GFP^+ leukemic colonies (left panel). […]
(§2) Having shown that IODVA1 prevents formation of F-actin suprastructures, such as lamellipodia and circular dorsal ruffles, within minutes of cell incubation (FIGS. 5A-5B and Gasilina et al., 2020) we focused on Rac. […] We thus tested if IODVA1 inhibits Rac activation and measured levels of Rac-GTP during treatment using PAK-GBD (GTPase-binding domain). […]

[3] = system: active Cdc42 in p190-BCR-ABL Ba/F3 cells; assay: Active GTPase pull-down (GST-PAK-GBD); type: cell-based, murine; settings: 3 μM
Procedure: as §1, §2

Compound: OC1(c2ccccn2)N=C(Nc2nc3ccccc3[nH]2)N=C1c1ccccn1 (stereo not shown) [IODVA1, (Z)-2-((1H-benzo[d]imidazol-2-yl)imino)-4,5-di(pyridin-2-yl)-2,5-dihydro-1H-imidazol-5-ol]
- WBC, neutrophils, lymphocytes, monocytes, RBC, hemoglobin, hematocrit, MCV, MCH, MCHV, RDW, platelets, mean platelet volume versus vehicle [1]: no significant difference
- decrease in the levels of active Rac ([2]; 3 μM, 10-15 minutes post incubation): 70%
- pIC50 ([2]; Mus musculus, BaF3, 1 h, read-out: IC50, Rac activation): 6.00
- effect on active Cdc42 [3]: less effective
